The nature of experiment [1]: DRUGMATRIX: ATPase, Na+/K+ enzyme inhibition (substrate: ATP). The class given is tissue-based, Sus scrofa, Heart. The settings on record: Not Active = under 50% inhibition at 10 µM.
Experiment [2] addresses 5-hydroxytryptamine receptor 1B (Rattus norvegicus, UniProt P28564). It counts as cell membranes, Wistar, Cerebral cortex, Membrane.
A further experiment has as its target T1, Endothelin-1 receptor (Homo sapiens, UniProt P25101). Also: in other assays of this panel Not Active means under 50% inhibition at 10 µM.
T1 sequence (P25101 whole entry): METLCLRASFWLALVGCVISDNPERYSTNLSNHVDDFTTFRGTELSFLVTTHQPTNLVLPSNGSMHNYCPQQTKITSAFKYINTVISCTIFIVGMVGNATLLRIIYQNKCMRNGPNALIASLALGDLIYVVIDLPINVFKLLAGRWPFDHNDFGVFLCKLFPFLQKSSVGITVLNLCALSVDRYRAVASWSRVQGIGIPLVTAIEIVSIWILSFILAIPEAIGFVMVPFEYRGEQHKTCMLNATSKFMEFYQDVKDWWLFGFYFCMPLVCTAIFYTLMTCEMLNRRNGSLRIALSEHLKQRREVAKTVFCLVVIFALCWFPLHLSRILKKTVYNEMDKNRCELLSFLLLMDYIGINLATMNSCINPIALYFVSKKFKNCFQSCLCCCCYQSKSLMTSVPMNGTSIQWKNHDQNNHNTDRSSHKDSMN
The class given is cell membranes, Membrane. Conditions: cho-k1.

The next experiment deals with Nitric oxide synthase 1 (Rattus norvegicus, UniProt P29476). It counts as tissue-based, Cerebellum.
Nitric oxide synthase 1, sequence (P29476 whole entry): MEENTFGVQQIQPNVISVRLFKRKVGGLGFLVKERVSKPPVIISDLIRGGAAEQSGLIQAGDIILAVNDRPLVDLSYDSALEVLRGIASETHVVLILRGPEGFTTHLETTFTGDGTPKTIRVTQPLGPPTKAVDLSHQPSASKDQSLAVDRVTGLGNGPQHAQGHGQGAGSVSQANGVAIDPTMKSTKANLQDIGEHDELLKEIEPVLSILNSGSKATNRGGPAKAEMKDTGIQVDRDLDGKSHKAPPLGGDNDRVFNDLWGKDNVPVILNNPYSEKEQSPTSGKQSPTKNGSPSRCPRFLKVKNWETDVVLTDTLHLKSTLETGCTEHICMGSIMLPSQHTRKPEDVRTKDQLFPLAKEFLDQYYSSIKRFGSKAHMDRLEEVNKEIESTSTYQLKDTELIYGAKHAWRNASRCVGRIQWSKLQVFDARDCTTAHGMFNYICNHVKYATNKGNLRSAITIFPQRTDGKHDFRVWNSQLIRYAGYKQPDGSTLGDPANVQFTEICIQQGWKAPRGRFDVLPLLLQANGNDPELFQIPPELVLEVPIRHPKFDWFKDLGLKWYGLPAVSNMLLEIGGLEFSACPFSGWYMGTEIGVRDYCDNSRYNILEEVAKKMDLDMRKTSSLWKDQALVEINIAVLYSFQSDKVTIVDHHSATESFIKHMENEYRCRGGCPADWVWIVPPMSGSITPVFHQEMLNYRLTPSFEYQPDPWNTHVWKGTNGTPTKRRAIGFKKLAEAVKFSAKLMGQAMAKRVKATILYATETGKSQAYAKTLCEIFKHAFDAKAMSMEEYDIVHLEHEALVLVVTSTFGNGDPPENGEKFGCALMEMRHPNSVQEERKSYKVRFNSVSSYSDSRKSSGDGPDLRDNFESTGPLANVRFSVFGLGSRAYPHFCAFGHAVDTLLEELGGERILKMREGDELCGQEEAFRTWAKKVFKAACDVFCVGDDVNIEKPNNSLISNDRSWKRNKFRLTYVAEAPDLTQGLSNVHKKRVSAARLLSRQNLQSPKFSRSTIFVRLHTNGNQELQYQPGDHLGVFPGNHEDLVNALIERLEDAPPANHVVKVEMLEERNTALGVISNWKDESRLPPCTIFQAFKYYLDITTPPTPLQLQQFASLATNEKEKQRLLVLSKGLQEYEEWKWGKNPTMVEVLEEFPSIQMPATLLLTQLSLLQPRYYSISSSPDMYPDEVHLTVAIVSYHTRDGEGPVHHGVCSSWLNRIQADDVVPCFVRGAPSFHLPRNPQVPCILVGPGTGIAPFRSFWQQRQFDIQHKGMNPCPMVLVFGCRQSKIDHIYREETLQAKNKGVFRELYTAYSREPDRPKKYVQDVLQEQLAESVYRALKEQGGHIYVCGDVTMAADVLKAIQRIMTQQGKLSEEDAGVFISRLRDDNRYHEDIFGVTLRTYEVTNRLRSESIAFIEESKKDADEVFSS
The target of experiment [3] is T2, Muscarinic acetylcholine receptor M4 (Homo sapiens, UniProt P08173). Also: in other assays of this panel Not Active means under 50% inhibition at 10 µM.
T2 sequence (P08173 whole entry): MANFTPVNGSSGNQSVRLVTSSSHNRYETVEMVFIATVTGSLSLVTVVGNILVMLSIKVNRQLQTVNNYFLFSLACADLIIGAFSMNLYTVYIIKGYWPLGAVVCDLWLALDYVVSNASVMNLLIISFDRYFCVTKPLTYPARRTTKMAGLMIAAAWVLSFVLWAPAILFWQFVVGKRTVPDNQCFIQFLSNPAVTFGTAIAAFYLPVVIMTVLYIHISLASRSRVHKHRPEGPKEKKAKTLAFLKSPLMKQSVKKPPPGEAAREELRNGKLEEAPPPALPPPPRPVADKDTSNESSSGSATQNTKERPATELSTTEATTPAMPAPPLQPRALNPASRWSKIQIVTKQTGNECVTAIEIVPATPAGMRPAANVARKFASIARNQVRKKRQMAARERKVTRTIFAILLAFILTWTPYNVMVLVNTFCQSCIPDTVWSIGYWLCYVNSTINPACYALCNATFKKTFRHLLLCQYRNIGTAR
It counts as cell membranes, CHO-K1, Membrane. The settings on record: for Ki: read-out: Ki.

Experiment [4] is described as follows: DRUGMATRIX: Calcium Channel Type L, Dihydropyridine radioligand binding (ligand: [3H] Nitrendipine). It counts as cell membranes, Rattus norvegicus, Wistar, Cerebral cortex, Membrane. The settings on record: Not Active = under 50% inhibition at 10 µM.

As a reminder, the IC50 is the concentration at which inhibition is half-maximal. For orientation: Ki means a dissociation constant, usually derived from enzyme kinetics or from competition with a known ligand.

5-hydroxytryptamine receptor 1B, sequence (P28564 whole entry): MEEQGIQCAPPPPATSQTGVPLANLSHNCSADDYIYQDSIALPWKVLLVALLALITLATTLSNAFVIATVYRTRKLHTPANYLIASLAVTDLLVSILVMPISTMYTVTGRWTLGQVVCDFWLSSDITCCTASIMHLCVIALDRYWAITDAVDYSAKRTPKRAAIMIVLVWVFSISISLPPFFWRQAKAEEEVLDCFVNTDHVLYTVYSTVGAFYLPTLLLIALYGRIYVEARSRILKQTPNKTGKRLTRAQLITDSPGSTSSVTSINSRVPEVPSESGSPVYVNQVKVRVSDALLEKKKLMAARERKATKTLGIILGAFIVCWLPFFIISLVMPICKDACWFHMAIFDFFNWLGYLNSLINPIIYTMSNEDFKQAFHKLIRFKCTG

On to `Cc1cc2c(OCC(CNC(C)(C)C)OC(=O)c3ccccc3)cccc2[nH]1` (stereo not given) [BOPINDOLOL], for which the IC50 entry (in experiment [1]; in experiment [2]; against Endothelin-1 receptor; against Nitric oxide synthase 1; in experiment [3] (cho-k1); in experiment [4]) was “Not Active” in each case. Also, the Ki result in experiment [1] and in experiment [4] was “Not Active” each time.
Take `Brc1c(NC2=NCCN2)ccc2nccnc12` [BRIMONIDINE]: the IC50 result (in experiment [1]; in experiment [2]; on Endothelin-1 receptor; against Nitric oxide synthase 1; in experiment [3] (cho-k1); in experiment [4]) was “Not Active” in each case. For the same compound, the Ki entry in experiment [1] and in experiment [4] was “Not Active” throughout.
For `CN(C)[C@@H]1C(O)=C(C(N)=O)C(=O)[C@@]2(O)C(O)=C3C(=O)c4c(O)ccc(Cl)c4[C@@](C)(O)[C@H]3C[C@@H]12` [CHLORTETRACYCLINE], the IC50 entry (in experiment [1]; in experiment [2]; at Endothelin-1 receptor; against Nitric oxide synthase 1; in experiment [3] (cho-k1); in experiment [4]) was “Not Active” in each case. Moreover, the Ki result in experiment [1] and in experiment [4] was “Not Active” each time.
In the case of `CN/C(=N\CCSCc1nc[nH]c1C)NC#N` [CIMETIDINE], the IC50 result (in experiment [1]; in experiment [2]; on Endothelin-1 receptor; against Nitric oxide synthase 1; in experiment [3] (cho-k1); in experiment [4]) was “Not Active” in each case. The Ki result in experiment [1] and in experiment [4] was “Not Active” throughout.
Turning to `COc1cc(N)c(Cl)cc1C(=O)NC1CCN(CCCOc2ccc(F)cc2)CC1OC` (stereo not given) [CISAPRIDE], the IC50 entry (in experiment [1]; in experiment [2]; against Endothelin-1 receptor; against Nitric oxide synthase 1; in experiment [3] (cho-k1); in experiment [4]) was “Not Active” in each case. Also, the Ki entry in experiment [1] and in experiment [4] was “Not Active” each time.
Regarding `CCC(=O)O[C@]1(C(=O)CCl)[C@@H](C)C[C@H]2[C@@H]3CCC4=CC(=O)C=C[C@]4(C)[C@@]3(F)[C@@H](O)C[C@@]21C` [CLOBETASOL PROPIONATE], the IC50 result (in experiment [1]; in experiment [2]; against Endothelin-1 receptor; on Nitric oxide synthase 1; in experiment [3] (cho-k1); in experiment [4]) was “Not Active” each time. Further, the Ki entry in experiment [1] and in experiment [4] was “Not Active” throughout.
Turning to `O=C1CN=C(c2ccccc2Cl)c2cc([N+](=O)[O-])ccc2N1` [CLONAZEPAM], the IC50 entry (in experiment [1]; in experiment [2]; against Endothelin-1 receptor; against Nitric oxide synthase 1; in experiment [3] (cho-k1); in experiment [4]) was “Not Active” in each case. For the same compound, the Ki result in experiment [1] and in experiment [4] was “Not Active” in each case.
`Nc1ccn([C@@H]2O[C@H](CO)[C@@H](O)[C@@H]2O)c(=O)n1` [CYTARABINE]: the IC50 entry (in experiment [1]; in experiment [2]; against Endothelin-1 receptor; on Nitric oxide synthase 1; in experiment [3] (cho-k1); in experiment [4]) was “Not Active” throughout. Moreover, the Ki result in experiment [1] and in experiment [4] was “Not Active” in each case.
Turning to `C[C@@H]1C[C@H]2[C@@H]3CCC4=CC(=O)C=C[C@]4(C)[C@@]3(F)[C@@H](O)C[C@]2(C)[C@H]1C(=O)CO` [DESOXIMETASONE], the IC50 result (in experiment [1]; in experiment [2]; against Endothelin-1 receptor; against Nitric oxide synthase 1; in experiment [3] (cho-k1); in experiment [4]) was “Not Active” in each case. Moreover, the Ki entry in experiment [1] and in experiment [4] was “Not Active” throughout.
As for `C[C@@H]1C[C@H]2[C@@H]3CCC4=CC(=O)C=C[C@]4(C)[C@@]3(F)[C@@H](O)C[C@]2(C)[C@@]1(O)C(=O)CO` [DEXAMETHASONE], the IC50 entry (in experiment [1]; in experiment [2]; against Endothelin-1 receptor; on Nitric oxide synthase 1; in experiment [3] (cho-k1); in experiment [4]) was “Not Active” each time. Also, the Ki entry in experiment [1] and in experiment [4] was “Not Active” in each case.
With `CN(C)CC[C@@H](c1ccc(Cl)cc1)c1ccccn1` [DEXCHLORPHENIRAMINE], the IC50 entry was “Not Active” in experiment [1]; “Not Active” in experiment [2]; “Not Active” on Endothelin-1 receptor; “Not Active” at Nitric oxide synthase 1; 1980 nM in experiment [3] (read-out: IC50); “Not Active” in experiment [4]. In addition, the Ki entry in experiment [1] was “Not Active”; in experiment [3], 276 nM; in experiment [4] it was “Not Active”.
Regarding `C[C@@H]1CC[C@@]2(OC1)O[C@H]1[C@@H](O)[C@H]3[C@@H]4CC[C@H]5C[C@@H](O[C@@H]6O[C@H](CO)[C@H](O[C@@H]7O[C@H](CO)C(O)[C@H](O[C@@H]8OC[C@@H](O)[C@H](O)[C@H]8O)[C@H]7O[C@@H]7O[C@H](CO)[C@H](O)[C@H](O[C@@H]8O[C@H](CO)[C@@H](O)[C@H](O)[C@H]8O)[C@H]7O)[C@H](O)[C@H]6O)[C@H](O)C[C@]5(C)[C@H]4CC[C@]3(C)[C@H]1[C@@H]2C` (stereo not given in full) [DIGITONIN], the IC50 result (in experiment [1]; in experiment [2]; against Endothelin-1 receptor; on Nitric oxide synthase 1; in experiment [3] (cho-k1); in experiment [4]) was “Not Active” in each case. Besides, the Ki result in experiment [1] and in experiment [4] was “Not Active” throughout.
As for `OC(CCCN1CCCCC1)(c1ccccc1)c1ccccc1` [DIPHENIDOL], the IC50 result in experiment [1] was “Not Active”; in experiment [2], “Not Active”; against Endothelin-1 receptor it was “Not Active”; against Nitric oxide synthase 1, “Not Active”; in experiment [3] (read-out: IC50) it was 271 nM; in experiment [4], “Not Active”. The Ki result was “Not Active” in experiment [1], 38 nM in experiment [3] and “Not Active” in experiment [4].
On to `C[C@H]1O[C@@H](n2cc(F)c(=O)[nH]c2=O)[C@H](O)[C@@H]1O` [DOXIFLURIDINE], for which the IC50 result (in experiment [1]; in experiment [2]; on Endothelin-1 receptor; against Nitric oxide synthase 1; in experiment [3] (cho-k1); in experiment [4]) was “Not Active” each time. Moreover, the Ki entry in experiment [1] and in experiment [4] was “Not Active” throughout.
As to `Cn1c(=O)c2c(ncn2CC(O)CO)n(C)c1=O` (stereo not given) [DYPHYLLINE], the IC50 entry (in experiment [1]; in experiment [2]; against Endothelin-1 receptor; at Nitric oxide synthase 1; in experiment [3] (cho-k1); in experiment [4]) was “Not Active” in each case. Further, the Ki entry in experiment [1] and in experiment [4] was “Not Active” throughout.
Consider `CC[C@H]1CN2CCc3cc(OC)c(OC)cc3[C@@H]2C[C@@H]1C[C@H]1NCCc2cc(OC)c(OC)cc21` [EMETINE], for which the IC50 entry (in experiment [1]; in experiment [2]; against Endothelin-1 receptor; against Nitric oxide synthase 1; in experiment [3] (cho-k1); in experiment [4]) was “Not Active” each time. The Ki result in experiment [1] and in experiment [4] was “Not Active” throughout.
Consider `C[C@@H](CO)NC(=O)[C@@H]1C=C2c3cccc4[nH]cc(c34)C[C@H]2N(C)C1` [ERGONOVINE], for which the IC50 entry in experiment [1] is “Not Active”; in experiment [2] (read-out: IC50), 2.85 nM; at Endothelin-1 receptor, “Not Active”; against Nitric oxide synthase 1, “Not Active”; in experiment [3] (cho-k1), “Not Active”; in experiment [4] it was “Not Active”. The Ki entry in experiment [1] is “Not Active”; in experiment [2] (read-out: Ki) it was 1.29 nM; in experiment [4] it was “Not Active”.
Regarding `COC(=O)CCc1ccc(OCC(O)CNC(C)C)cc1` (stereo not given) [ESMOLOL], the IC50 entry (in experiment [1]; in experiment [2]; against Endothelin-1 receptor; on Nitric oxide synthase 1; in experiment [3] (cho-k1); in experiment [4]) was “Not Active” each time. The Ki result in experiment [1] and in experiment [4] was “Not Active” in each case.
Turning to `CCC1(C)CC(=O)NC1=O` (stereo not given) [ETHOSUXIMIDE], the IC50 entry (in experiment [1]; in experiment [2]; against Endothelin-1 receptor; at Nitric oxide synthase 1; in experiment [3] (cho-k1); in experiment [4]) was “Not Active” throughout. Further, the Ki result in experiment [1] and in experiment [4] was “Not Active” throughout.
